In general, Kd refers to the equilibrium constant for the complex coming apart.

Active and inactive are the calls of the source. No rule for the calls is given here.

The target of the experiment is Influenza A virus M2 proton channel (A/TW/4845/1999 H1N1). In words: M2 proton channel binding, NMR based, influenza A virus H1N1 strain (AID 1549). The settings on record: NMR binding screen, M2 protein.
`c1ccc(Cc2nnc3sc(-c4cccnc4)nn23)cc1`: the Kd was > 4 mM (inactive).

With `CCCNC(=O)CSc1ncccc1C(=O)O`, the Kd is > 4 mM (inactive).

For `Cc1sc2nc[nH]c(=S)c2c1C`, the Kd is > 4 mM (inactive).

Consider `OCc1ccc(CN2CCOCC2)cc1`, for which the Kd was > 4 mM (inactive).

For `CCC(C)C(=O)O[C@H]1[C@H](O)C2C(CN3CC(C)CCC3[C@@]2(C)O)C2C[C@]34O[C@]5(O)C(OC(=O)C(C)(O)C(C)O)CC[C@@]3(C)C5C(OC(C)=O)[C@@H](OC(C)=O)C4[C@@]21O` (stereo partly drawn), the Kd was > 4 mM (inactive).

With `CC(C1OC(C)(C)C(O)C1O)[C@@H]1CC[C@]2(C)C3=CCC4C(C)(C)C(=O)CC[C@]4(C)C3CC[C@@]12C` (stereo partly drawn), the Kd was > 4 mM (inactive).

`O=C(NCc1ccccn1)c1ccc(Br)s1`: the Kd was > 4 mM (inactive).

For `Nc1ncnc2nc[nH]c12`, the Kd was > 4 mM (inactive).

Turning to `NC(=O)c1cccc2c(=O)oc3ccccc3c12`, the Kd is > 4 mM (inactive).

Turning to `CC(=O)O[C@@H]1CC2C(C)(C)C=CC(=O)[C@]2(C)C2CC[C@@]3(C)[C@H](c4ccoc4)OC(=O)C4OC43[C@@]21C` (stereo partly drawn), the Kd is > 4 mM (inactive).

As to `CCC(C)C(=O)c1c(O)c(C)c2oc3c(C)c(O)c(C(=O)C(C)CC)c(O)c3c2c1O` (stereo not drawn), the Kd was > 4 mM (inactive).

Turning to `O=C1c2ccccc2C(=O)N1/N=C/c1ccc[nH]1`, the Kd was > 4 mM (inactive).

As to `NC(=O)CC(=O)NC12CC3CC(CC(C3)C1)C2`, the Kd is > 4 mM (inactive).

For the compound `CC1(C)C2C[C@@H](O)[C@]3(C)C(CC[C@@]4(C)[C@H](c5ccoc5)OC(=O)[C@H]5O[C@]543)[C@@]2(C)[C@@H](O)C[C@H]1O` (stereo partly drawn), the Kd is > 4 mM (inactive).

In the case of `O=S(=O)(Nc1ccc2c(c1)OCCO2)c1cccs1`, the Kd was > 4 mM (inactive).

`CC1(C)Cc2cccc(CO)c2O1`: the Kd was > 4 mM (inactive).

Regarding `CCC(=O)NC(=S)Nc1ccc(N2CCOCC2)cc1`, the Kd is > 4 mM (inactive).

Turning to `CCCCCCCCCCCCCc1ccco1`, the Kd is > 4 mM (inactive).

In the case of `Cc1cc2c(nn1)CCc1nonc1-2`, the Kd is > 4 mM (inactive).

Turning to `COc1ccc(/C=C/C(=O)O)cc1OC`, the Kd was > 4 mM (inactive).

On to `O=C1Cn2c(nc3ccccc32)N1c1ccccc1F`, for which the Kd was > 4 mM (inactive).

Regarding `O=C(NCc1ccccc1Br)c1ccco1`, the Kd was > 4 mM (inactive).

In the case of `NC(=O)CSc1ccc(-c2ccco2)nn1`, the Kd was > 4 mM (inactive).

For `O=C(O)CCCc1nc2ccccc2s1`, the Kd was > 4 mM (inactive).

With `CNC(=O)C1=NCCCc2cc(OC)c(OC)cc21`, the Kd was > 4 mM (inactive).

In the case of `Cc1csc(NC(=O)c2cccs2)n1`, the Kd is > 4 mM (inactive).

As to `CN(C)c1ccc(/C=C2/NC(=S)NC2=O)cc1`, the Kd is > 4 mM (inactive).

Regarding `Cc1ccc(S(C)(=O)=O)s1`, the Kd is > 4 mM (inactive).

For `O=c1cc(O)n(-c2ccc(F)cc2)c(=S)[nH]1`, the Kd is > 4 mM (inactive).

As to `CC(=O)NCC1(c2ccccc2)CCOCC1`, the Kd was > 4 mM (inactive).

As for `CNC(=S)NCCN1CCOCC1`, the Kd was > 4 mM (inactive).

In the case of `O=C(NC1CC1)c1ccccc1[N+](=O)[O-]`, the Kd was > 4 mM (inactive).

As for `CC(=O)NC(=S)Nc1ccc(C(C)=O)cc1`, the Kd was > 4 mM (inactive).

With `CC(C)(C)CC(=O)NNC(=O)c1cnccn1`, the Kd was > 4 mM (inactive).

With `Cc1csc2nc(N)nn12`, the Kd was > 4 mM (inactive).

On to `COc1ccc2ccc(=O)oc2c1`, for which the Kd is > 4 mM (inactive).

Take `OCC1Cc2ccccc2CN1` (stereo not drawn): the Kd is > 4 mM (inactive).

Regarding `CNC(=O)C(=O)Nc1ccc(C)c(C)c1`, the Kd was > 4 mM (inactive).

For `COc1cc(-c2csc(C)n2)ccc1O`, the Kd is > 4 mM (inactive).

Consider `Brc1ccc(-c2nc(-c3ccncc3)no2)o1`, for which the Kd was > 4 mM (inactive).

`COc1cc2c(cc1O)CCNC2C` (stereo not drawn): the Kd is > 4 mM (inactive).

Take `NC12CC3CC(C1)CC(C(=O)O)(C3)C2`: the Kd was > 4 mM (inactive).

In the case of `Cc1c(-c2ccc(F)cc2)[n+](=O)c2c(n1[O-])CCC2`, the Kd is > 4 mM (inactive).

For the compound `O=C(Cn1cnc2ccccc2c1=O)N1CCOCC1`, the Kd is > 4 mM (inactive).

As for `NCCCCN=C(N)N`, the Kd is > 4 mM (inactive).

As to `NC(=O)c1ccc(N2CCCCC2)c(N)c1`, the Kd was > 4 mM (inactive).

Consider `COc1ccc(C)cc1S(=O)(=O)Nc1ccccc1C`, for which the Kd was > 4 mM (inactive).

As for `O=C(NCCCSc1ncccn1)Nc1ncccn1`, the Kd is > 4 mM (inactive).

Turning to `O=c1[nH]cc(S(=O)(=O)N2CCc3ccccc32)c(=O)[nH]1`, the Kd is > 4 mM (inactive).

Turning to `O=C(Nc1ccc2c(c1)OCCO2)c1c(F)cccc1F`, the Kd was > 4 mM (inactive).

For the compound `Nc1ccc2[nH]ncc2c1`, the Kd was > 4 mM (inactive).

Consider `Cc1c(F)cccc1NS(=O)(=O)c1ccccc1C#N`, for which the Kd is > 4 mM (inactive).

For the compound `Cc1cc(C)n2nc(Cc3ccccc3)nc2n1`, the Kd is > 4 mM (inactive).

Take `Cc1cc(=O)oc2cc(O)c(O)cc12`: the Kd was > 4 mM (inactive).

As for `CSc1nnc(-c2ccccc2NC(C)=O)o1`, the Kd is > 4 mM (inactive).

For `Cc1cc(=O)n2[nH]c(COc3ccccc3)nc2n1`, the Kd was > 4 mM (inactive).

Turning to `C[C@@H]1CC[C@@]2(OC1)O[C@H]1CC3C4CC[C@H]5C[C@@H](O)CC[C@]5(C)C4CC[C@]3(C)[C@H]1[C@@H]2C` (stereo partly drawn), the Kd was > 4 mM (inactive).

Regarding `CC(=O)c1ccc(NS(=O)(=O)c2cccc(C)c2)cc1`, the Kd is > 4 mM (inactive).

Consider `CCc1cccc(C)c1NC(=O)c1cc(C)oc1C`, for which the Kd is > 4 mM (inactive).

As to `COc1cccc(-c2nn(-c3ccccc3)cc2CO)c1`, the Kd is > 4 mM (inactive).

As to `O=CN1CCN(C(=O)c2ccccc2Cl)CC1`, the Kd is > 4 mM (inactive).

In the case of `O=C(Nc1ccon1)c1sc2cc(F)ccc2c1Cl`, the Kd was > 4 mM (inactive).

Regarding `CCN(CC)S(=O)(=O)c1ccc(F)cc1`, the Kd was > 4 mM (inactive).

In the case of `O=c1[nH]c(=O)n(-c2ccc(F)cc2)c(O)c1/C=C1/C=CC=N1`, the Kd is > 4 mM (inactive).

On to `O=C(O)CCCCCCCCCCCCC1C=CCC1` (stereo not drawn), for which the Kd was > 4 mM (inactive).

`CCCCC(Nc1n[nH]c(=O)[nH]c1=O)C(=O)O` (stereo not drawn): the Kd is > 4 mM (inactive).

With `O=c1[nH]c(=S)c2c(n1-c1ccccc1)CCC2`, the Kd is > 4 mM (inactive).

Take `CCOC(=O)c1cnc2cc(C)nn2c1C`: the Kd was > 4 mM (inactive).

In the case of `O=c1ccnc(Nc2ccccc2O)[nH]1`, the Kd was > 4 mM (inactive).

As to `NC(c1ccccc1)c1ccccn1` (stereo not drawn), the Kd is > 4 mM (inactive).

`CC(=O)Nc1ccc(-c2nc(C)c(C(C)=O)n2O)cc1`: the Kd was > 4 mM (inactive).

`O=C(NCc1ccccc1)c1ccc[n+]([O-])c1`: the Kd was > 4 mM (inactive).

As for `Cc1cc(=O)n(C(N)=S)[nH]1`, the Kd is > 4 mM (inactive).

As to `O=C(O)c1ccnn1-c1ccccc1`, the Kd is > 4 mM (inactive).

With `CSc1ccccc1NC(=O)c1cccnc1`, the Kd is > 4 mM (inactive).

For the compound `CC(C)n1nnc2cc(C(=O)O)ccc21`, the Kd was > 4 mM (inactive).

Turning to `O=[n+]1cc(C2=CC=CCC2)n([O-])c2c1CCCCC2`, the Kd was > 4 mM (inactive).

On to `Cn1cnc2c(Cl)ncnc21`, for which the Kd was > 4 mM (inactive).

`COc1ccccc1-c1noc(-c2ccncc2)n1`: the Kd is > 4 mM (inactive).

In the case of `Cc1cccc(-c2nnc(-c3ccc(N)cc3)o2)c1`, the Kd was > 4 mM (inactive).

Turning to `O=c1nc(N2CCCCC2)nc2n1CCO2`, the Kd is > 4 mM (inactive).

Take `O=C(NCc1ccccc1)c1cnsn1`: the Kd was > 4 mM (inactive).

For the compound `COc1ccc(N2C(=O)CCC2=O)c(OC)c1`, the Kd is > 4 mM (inactive).

Consider `S=c1nc(Cc2ccccc2)[nH][nH]1`, for which the Kd is > 4 mM (inactive).

For `O=C(Cc1c(F)cccc1Cl)Nc1cccnc1`, the Kd is > 4 mM (inactive).

As to `O=C1CNCc2[nH]c3ccccc3c2N1c1ccccc1`, the Kd was > 4 mM (inactive).

As to `Nc1cc(=O)[nH]c(=S)n1-c1ccc(F)cc1`, the Kd is > 4 mM (inactive).

On to `CC(C)[C@@H]1CC[C@@H](C)C[C@H]1OC(=O)c1ccccc1`, for which the Kd is > 4 mM (inactive).

Turning to `Cc1nn2c(=O)/c(=C/c3cccc(F)c3)sc2nc1=O`, the Kd was > 4 mM (inactive).

In the case of `NS(=O)(=O)c1ccc(N=Cc2ccc[nH]2)cc1`, the Kd was > 4 mM (inactive).

Turning to `NC(=O)c1ccc(NC(=O)C2CC2)cc1`, the Kd is > 4 mM (inactive).

As for `O=C(O)c1csc2ccccc12`, the Kd is > 4 mM (inactive).

For `CC(=O)O[C@H]1C(=O)[C@@]2(C)C([C@H](OC(=O)c3ccccc3)[C@]3(O)C[C@H](OC(=O)[C@H](O)[C@@H](NC(=O)c4ccccc4)c4ccccc4)C(C)=C1C3(C)C)[C@]1(OC(C)=O)CO[C@@H]1C[C@@H]2O` (stereo partly drawn), the Kd is > 4 mM (inactive).

For `O=C1CCC(=O)N1c1nc2ccccc2s1`, the Kd is > 4 mM (inactive).

For `CC(C)Oc1ccc(C2CC(=O)NNC2=O)cc1` (stereo not drawn), the Kd was > 4 mM (inactive).

As for `COc1cc(OC)c2c(OC)c(-c3ccc4c(c3)OCO4)c(=O)oc2c1`, the Kd is > 4 mM (inactive).

Regarding `Cc1cc(N)no1`, the Kd is > 4 mM (inactive).

Turning to `C[C@@H]1CC[C@@]2(OC1)OC1C(O)C3C4CC[C@H]5C[C@H](O[C@@H]6O[C@H](CO)[C@H](O[C@@H]7O[C@H](CO)[C@@H](O)[C@H](O[C@@H]8OC[C@@H](O)[C@H](O)[C@H]8O)[C@H]7O[C@@H]7O[C@H](CO)[C@H](O)[C@H](O[C@@H]8O[C@H](CO)[C@@H](O)[C@H](O)[C@H]8O)[C@H]7O)[C@H](O)[C@H]6O)[C@H](O)C[C@]5(C)C4CC[C@]3(C)C1[C@@H]2C` (stereo partly drawn), the Kd was > 4 mM (inactive).

For the origin of these results see PubChem BioAssay AID1549 (Sanford-Burnham Center for Chemical Genomics, 2009).
